# Data: PMC7044140, “Comparative studies on similarities and differences of cyclodipeptide oxidases for installation of C–C double bonds at the diketopiperazine ring” (Applied Microbiology and Biotechnology, 2020)
# Tests used:
# CDO-Np (CDO-NpA/CDO-NpB) = target: T1, CDO-Np (CDO-NpA/CDO-NpB) (Nocardiopsis sp. L17-MgMaSL7, UniProt A0A317LX08+A0A317LXS7); test: LC-MS/HPLC product formation with E. coli crude extract; type: biochemical; settings: 1 mM substrate, 1 mM phenazine methosulfate, pH 7.5, 40 °C; dehydrogenation
# T1 construct: gene BDW27_11054; desalted crude extract
# T1 sequence (A0A317LXS7 1-185): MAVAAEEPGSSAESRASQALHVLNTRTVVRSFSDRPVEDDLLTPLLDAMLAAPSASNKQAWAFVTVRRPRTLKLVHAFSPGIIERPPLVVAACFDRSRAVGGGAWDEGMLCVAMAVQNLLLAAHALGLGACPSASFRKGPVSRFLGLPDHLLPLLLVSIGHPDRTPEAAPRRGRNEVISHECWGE
# T1 sequence (A0A317LX08 1-105): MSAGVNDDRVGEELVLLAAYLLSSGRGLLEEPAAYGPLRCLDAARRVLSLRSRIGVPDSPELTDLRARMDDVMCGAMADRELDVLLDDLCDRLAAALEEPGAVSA
# AlbA/B = target: T2, AlbA/B (Streptomyces noursei, UniProt Q8GED8+Q8GED9); test: as above; type: biochemical; settings: 1 mM substrate, 1 mM phenazine methosulfate, pH 7.5, 40 °C; dehydrogenation
# T2 construct: both subunits co-expressed from overlapping genes in pQE-60 (pKB90) in E. coli SG 13009; desalted crude extract; CDOs described as multimers above 2000 kDa, estimated B to A ratio 1:10
# T2 sequence (Q8GED9 whole entry): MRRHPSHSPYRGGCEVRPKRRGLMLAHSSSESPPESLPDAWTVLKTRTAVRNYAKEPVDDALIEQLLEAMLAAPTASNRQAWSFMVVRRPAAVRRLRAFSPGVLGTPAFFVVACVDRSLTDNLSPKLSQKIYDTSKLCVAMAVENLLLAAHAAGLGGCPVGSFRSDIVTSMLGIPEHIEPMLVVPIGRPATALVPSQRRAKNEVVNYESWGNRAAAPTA
# T2 sequence (Q8GED8 whole entry): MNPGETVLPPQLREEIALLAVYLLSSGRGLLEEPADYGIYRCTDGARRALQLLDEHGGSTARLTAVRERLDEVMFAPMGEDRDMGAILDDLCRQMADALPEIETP
SMILES,LC-MS/HPLC product formation with E. coli crude extract (CDO-Np (CDO-NpA/CDO-NpB)),LC-MS/HPLC product formation with E. coli crude extract (AlbA/B)
"CC(C)C[C@@H]1NC(=O)[C@H](Cc2ccccc2)NC1=O [1a, cyclo-L-Phe-L-Leu]",CDO-Np showed very high activity toward 1a and 2a,
"O=C1N[C@@H](Cc2ccc(O)cc2)C(=O)N[C@H]1Cc1ccccc1 [2a, cyclo-L-Phe-L-Tyr]",In vitro incubation of 2a with CDO-Np led to an almost complete conversion to 2d,The behavior of AlbA/B with 2a was similar to CDO-Np with 3a and 5a
"O=C1N[C@@H](Cc2c[nH]c3ccccc23)C(=O)N[C@H]1Cc1ccc(O)cc1 [3a, cyclo-L-Trp-L-Tyr]",,Only one didehydrogenated product 3b or 5b was detected in the reaction mixtures of AlbA/B
